Patent publication US6906097B2, “8-azaprostaglandin analogs as agents for lowering intraocular pressure” (Allergan, Inc., priority 2002, dated 2005)

Key:
hEP3D = molecular target: T1, hEP3D (Homo sapiens, UniProt P43115); assay: Radioligand binding, hEP3D; settings: [3H]PGE2 competition
T1 construct: expressed in transfected cells; host or cells: COS-7, transient transfection, plasma membrane fraction
T1 sequence (P43115 1-374 isoform P43115-4): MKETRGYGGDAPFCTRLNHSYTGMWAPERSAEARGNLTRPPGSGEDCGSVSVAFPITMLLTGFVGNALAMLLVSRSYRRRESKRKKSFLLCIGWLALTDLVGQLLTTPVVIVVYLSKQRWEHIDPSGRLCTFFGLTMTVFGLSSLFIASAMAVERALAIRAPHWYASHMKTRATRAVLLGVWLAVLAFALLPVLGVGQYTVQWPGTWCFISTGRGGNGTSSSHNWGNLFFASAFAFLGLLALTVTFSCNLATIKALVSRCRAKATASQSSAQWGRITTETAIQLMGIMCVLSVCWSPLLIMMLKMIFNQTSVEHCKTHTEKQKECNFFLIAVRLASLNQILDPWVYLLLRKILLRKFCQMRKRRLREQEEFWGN
Experimental: For radioligand binding on the transient transfectants, plasma membrane fraction preparation was as follows. COS-7 cells were washed with TME buffer, scraped from the bottom of the flasks, and homogenized for 30 sec using a Brinkman PT 10/35 polytron. TME buffer was added to achieve a final 40 ml volume in the centrifuge tubes. The composition of TME is […]; 10N HCl is added to achieve a pH of 7.4.
The cell homogenate was centrifuged at 19000 rpm for 20 min at 4° C. using a Beckman Ti-60 rotor. The resultant pellet was resuspended in TME buffer to give a final 1 mg/ml protein concentration, as determined by Biorad assay. Radioligand binding assays were performed in a 200 μl volume.
The binding of [^3H] PGE2 (specific activity 165 […]) at EP3D, receptors and [^3H]-SQ29548 (specific activity 41.5 Ci mmol^−1) at TP receptors were determined in duplicate in at least three separate experiments. Radiolabeled PGE2 was purchased from Amersham, radiolabeled SQ29548 was purchased from New England Nuclear. […] Competition studies were performed using a final concentration of 2.5 or 5 nM [^3H]-PGE2, or 10 nM [^3H]-SQ 29548 and non-specific binding determined with 10 μM of the respective unlabeled prostanoid. […]

hTP = molecular target: T2, hTP (Homo sapiens, UniProt P21731); assay: Functional data, human recombinant TP receptor stable transfectants; assay type: cell-based
T2 construct: expressed in transfected cells
T2 sequence (P21731 1-343): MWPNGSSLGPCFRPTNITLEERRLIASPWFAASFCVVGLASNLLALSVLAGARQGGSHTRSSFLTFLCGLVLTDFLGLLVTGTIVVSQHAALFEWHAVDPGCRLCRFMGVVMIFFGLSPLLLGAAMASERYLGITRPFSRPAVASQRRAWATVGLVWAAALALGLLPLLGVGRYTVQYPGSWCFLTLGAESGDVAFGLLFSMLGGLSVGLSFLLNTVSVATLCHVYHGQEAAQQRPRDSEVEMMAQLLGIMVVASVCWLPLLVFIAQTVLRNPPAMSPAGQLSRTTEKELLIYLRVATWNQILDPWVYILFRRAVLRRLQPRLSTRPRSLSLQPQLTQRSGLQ
Experimental: (§1) Human Recombinant EP1, EP2, EP3, EP4, FP, TP, IP and DP Receptors: Stable Transfectants
(§2) Plasmids encoding the human EP1, EP2, EP3, EP4, FP, TP, IP and DP receptors were prepared by cloning the respective coding sequences into the eukaryotic expression vector pCEP4 (Invitrogen). The pCEP4 vector contains an Epstein Barr virus (EBV) origin of replication, which permits episomal replication in primate cell lines expressing EBV nuclear antigen (EBNA-1). It also contains a hygromycin resistance gene that is used for eukaryotic selection. The cells employed for stable transfection were human embryonic kidney cells (HEK-293) that were transfected with and express the EBNA-1 protein. These HEK-293-EBNA cells (Invitrogen) were grown in medium containing Geneticin (G418) to maintain expression of the EBNA-1 protein. HEK-293 cells were grown in DMEM with 10% fetal bovine serum (FBS), 250 μg ml^−1 G418 (Life Technologies) and 200 μg ml^−1 gentamicin or penicillin/streptomycin.
(§3) For transfection, the cells were grown to 50-60% confluency on 10 cm plates. The plasmid pCEP4 incorporating cDNA inserts for the respective human prostanoid receptor (20 μg) was added to 500 μl of 250 mM CaCl2. HEPES buffered saline×2 (2×HBS, 280 mM NaCl, 20 mM HEPES acid, 1.5 mM Na2 HPO4, pH 7.05-7.12) was then added dropwise to a total of 500 μl, with continuous vortexing at room temperature. After 30 min, 9 ml DMEM were added to the mixture. The DNA/DMEM/calcium phosphate mixture was then added to the cells, which had been previously rinsed with 10 ml PBS. The cells were then incubated for 5 hr at 37° C. in humidified 95% air/5% CO2. The calcium phosphate solution was then removed and the cells were treated with 10% glycerol in DMEM for 2 min. The glycerol solution was then replaced by DMEM with 10% FBS. The cells were incubated overnight and the medium was replaced by DMEM/10% FBS containing 250 μg ml^−1 G418 and penicillin/streptomycin. The following day hygromycin B was added to a final concentration of 200 μg ml^−1.
(§4) Ten days after transfection, hygromycin B resistant clones were individually selected and transferred to a separate well on a 24 well plate. At confluence each clone was transferred to one well of a 6 well plate, and then expanded in a 10 cm dish. Cells were maintained under continuous hygromycin selection until use.

hEP1 = molecular target: T3, hEP1 (Homo sapiens, UniProt P34995); assay: Functional data, human recombinant EP1 receptor stable transfectants; assay type: cell-based
T3 construct: expressed in transfected cells
T3 sequence (P34995 1-402): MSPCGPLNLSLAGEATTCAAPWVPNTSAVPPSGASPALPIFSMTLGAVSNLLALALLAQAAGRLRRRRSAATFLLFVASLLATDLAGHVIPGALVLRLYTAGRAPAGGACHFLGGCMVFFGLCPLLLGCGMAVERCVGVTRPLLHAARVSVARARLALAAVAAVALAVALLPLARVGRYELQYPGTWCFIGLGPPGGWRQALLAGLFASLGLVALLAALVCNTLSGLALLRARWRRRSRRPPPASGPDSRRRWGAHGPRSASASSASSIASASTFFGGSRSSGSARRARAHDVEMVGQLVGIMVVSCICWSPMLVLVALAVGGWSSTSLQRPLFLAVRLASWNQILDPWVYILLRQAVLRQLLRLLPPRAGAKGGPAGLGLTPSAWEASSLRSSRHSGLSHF
Experimental: as §1, §2, §3, §4

- IC50 (hEP3D): 0.012 µM
- EC50 (hTP): > 10 µM
- EC50 (hEP1): > 10 µM
SMILES: O=C(O)CCCCCCN1C(=O)CC[C@@H]1CCC(O)Cc1cccc(Cl)c1 (stereo partly drawn) [Example 1, 7-[2S-[3R-Hydroxy-4-(chloro-phenyl)-butyl]-5-oxo-pyrrolidin-1-yl]-heptanoic acid]
